# Measured values as given in patent US20080114168A1, “Novel esters as useful broad spectrum herbicidal compounds” (priority 2004, published 2008).
# Key:
# grasses = experiment: herbicidal activity against grasses, applied in aqueous solution; format: in vivo; conditions: applied in an aqueous solution at 500-2000 ppm
# [1] = system: glufosinate-resistant corn; experiment: crop selectivity; format: in vivo; conditions: aqueous solution at 500-2000 ppm
# broad leaved weeds = experiment: herbicidal activity against broad leaved weeds, applied in aqueous solution; format: in vivo; conditions: applied in an aqueous solution at 500-2000 ppm
# [2] = general herbicidal character (selective or non-selective); conditions: in vivo
SMILES,herbicidal activity against grasses (grasses),selectivity to crop [1],herbicidal activity against broad leaved weeds (broad leaved weeds),herbicide selectivity (general) [2]
"CP(=O)(O)CCC(N)C(=O)Oc1cc(Cl)nnc1-c1ccccc1 (racemic) [Example 1, 6-chloro-3-phenylpyridazin-4-yl 4-[hydroxyl(methyl)phosphinoyl]-DL-alaninate]",active,selective,active,–
CP(=O)(O)CCC(N)C(=O)Oc1c(Cl)cnc(Cl)c1Cl (racemic) [Example 2],active,–,active,powerful non-selective herbicide
